# Data taken from paper PMC9380671, “Development of spiro-3-indolin-2-one containing compounds of antiproliferative and anti-SARS-CoV-2 properties” (Scientific Reports, 2022).
# Where two headings read alike, the source gives them in different places.
# What was measured:
# [1] = test system: MCF7 (breast) cancer cell line; assay: MTT antiproliferation, MCF7; format: cell-based, human; conditions: for IC50: Homo sapiens, MCF7, 72 h, read-out: IC50 (µM) ± SEM MCF7; for SI (selectivity index) MCF7: IC50 of RPE1/IC50 of cancer cell line
# Experimental: (§1) Antiproliferation properties of the targeted agents were investigated by the standard MTT technique against diverse human cancer cell lines [MCF7 (breast), HCT116 (colon), A431 (skin squamous) and PaCa2 (pancreatic)][67] (Table 1, Supplementary Figs. S48‒S51).
# (§2) Cells were seeded at concentration of 30000 cells per well in fresh complete growth medium in 96-well tissue culture microtiter plates for 24 h. […] 0.5% DMSO was used as negative control. Triplicate wells were prepared for each individual dose. After 72 h of incubation, medium was aspirated, 40 μl MTT salt (2.5 mg ml^-1) was added to each well and incubated for further 4 h at 37 °C. To stop the reaction and dissolve the formed crystals, 150 μl of 10% sodium dodecyl sulfate (SDS) in deionized water was added to each well and incubated overnight at 37 °C.
# (§3) Data were collected as mean values for experiments performed in triplicates for each individual dose which had been measured by MTT assay. […] The cell surviving fraction was calculated according to the following equation.
# (§4) Surviving fraction = OpticaldensityO.D.oftreatedcellsO.D.ofcontrolcells
# (§5) Statistical calculations for determination of the mean and standard error mean values were determined by SPSS 16 software.
# [2] = test system: HCT116 (colon) cancer cell line; assay: MTT antiproliferation, HCT116; format: cell-based, human; conditions: for IC50: Homo sapiens, HCT-116, 72 h, read-out: IC50 (µM) ± SEM HCT116; for SI (selectivity index) HCT116: IC50 of RPE1/IC50 of cancer cell line
# Experimental: as §1, §2, §3, §4, §5
# [3] = test system: A431 (skin squamous) cancer cell line; assay: MTT antiproliferation, A431; format: cell-based, human; conditions: for IC50: Homo sapiens; for SI (selectivity index) A431: IC50 of RPE1/IC50 of cancer cell line
# Experimental: as §1, §2, §3, §4, §5
# [4] = test system: PaCa2 (pancreatic) cancer cell line; assay: MTT antiproliferation, PaCa-2; format: cell-based, human; conditions: for IC50: Homo sapiens, PaCa-2, 72 h, read-out: IC50 (µM) ± SEM PaCa-2; for SI (selectivity index) PaCa-2: IC50 of RPE1/IC50 of cancer cell line
# Experimental: as §1
# Cells were suspended in DMEM medium for MCF7, A431, PaCa-2 and McCoy’s 5A for HCT116 in addition to 1% antibiotic–antimycotic mixture (10000 μg ml^-1 potassium penicillin, 10000 μg ml^-1 streptomycin sulfate and 25 μg ml^-1 amphotericin B), 10% fetal bovine serum and 1% L-glutamine at 37 °C, under 5% CO2 and 95% humidity. Cells were seeded at concentration of 30000 cells per well in fresh complete growth medium in 96-well tissue culture microtiter plates for 24 h. Media was aspirated, fresh complete medium was added and cells were incubated with different concentrations of the tested compound to give a final concentration of [50, 25, 12.5 and 6.25 μM “in addition to 3.125, 1.56 and 0.78 μM in case of high potent analogues”). 0.5% DMSO was used as negative control. Triplicate wells were prepared for each individual dose. After 72 h of incubation, medium was aspirated, 40 μl MTT salt (2.5 mg ml^-1) was added to each well and incubated for further 4 h at 37 °C. To stop the reaction and dissolve the formed crystals, 150 μl of 10% sodium dodecyl sulfate (SDS) in deionized water was added to each well and incubated overnight at 37 °C. The absorbance was then measured at 570 nm and a reference wavelength of 595 nm.
# as §3, §4
# (§6) Statistical calculations for determination of the mean and standard error mean values were determined by SPSS 16 software. The observed anti-proliferative properties are presented in Table 1 (Supplementary Figs. S48‒S52).
# [5] = test system: RPE1 (normal human immortalized retinal pigment epithelial cell line); assay: MTT toxicity towards normal cells, RPE1; format: cell-based; conditions: RPE-1, read-out: IC50 (µM) ± SEM RPE1
# Experimental: The safety of the synthesized agents against non-cancer/normal RPE1 (retinal pigment epithelium) cell line was assessed (Table 1, Supplementary Fig. S52). The SI (selectivity index) for the tested compounds against RPE1 cell line confirms the safety towards non-cancer cells. […] Compound 6d and 6h which are also of high anti-PaCa2 show remarkable SI values (SI = > 3.8, > 3.6, respectively).
# The agents synthesized were also tested against RPE1 (normal human immortalized retinal pigment epithelial cell line) cell (in DMEM-F12 medium) to determine the toxicity/selectivity towards normal cells relative to the cancer cell lines utilized.
# as §6
# EGFR = molecular target: T1, EGFR (Homo sapiens, UniProt P00533); format: cell-based; conditions: western blot, MCF7, compound at its MTT IC50; for EGFR RQ (relative quantification): control RQ 3.4461
# T1 construct: Western blot technique was considered for EGFR and VEGFR-2 properties determination; endogenous in cells; host or cells: MCF7 (breast cancer cell line)
# T1 sequence (P00533 25-1210): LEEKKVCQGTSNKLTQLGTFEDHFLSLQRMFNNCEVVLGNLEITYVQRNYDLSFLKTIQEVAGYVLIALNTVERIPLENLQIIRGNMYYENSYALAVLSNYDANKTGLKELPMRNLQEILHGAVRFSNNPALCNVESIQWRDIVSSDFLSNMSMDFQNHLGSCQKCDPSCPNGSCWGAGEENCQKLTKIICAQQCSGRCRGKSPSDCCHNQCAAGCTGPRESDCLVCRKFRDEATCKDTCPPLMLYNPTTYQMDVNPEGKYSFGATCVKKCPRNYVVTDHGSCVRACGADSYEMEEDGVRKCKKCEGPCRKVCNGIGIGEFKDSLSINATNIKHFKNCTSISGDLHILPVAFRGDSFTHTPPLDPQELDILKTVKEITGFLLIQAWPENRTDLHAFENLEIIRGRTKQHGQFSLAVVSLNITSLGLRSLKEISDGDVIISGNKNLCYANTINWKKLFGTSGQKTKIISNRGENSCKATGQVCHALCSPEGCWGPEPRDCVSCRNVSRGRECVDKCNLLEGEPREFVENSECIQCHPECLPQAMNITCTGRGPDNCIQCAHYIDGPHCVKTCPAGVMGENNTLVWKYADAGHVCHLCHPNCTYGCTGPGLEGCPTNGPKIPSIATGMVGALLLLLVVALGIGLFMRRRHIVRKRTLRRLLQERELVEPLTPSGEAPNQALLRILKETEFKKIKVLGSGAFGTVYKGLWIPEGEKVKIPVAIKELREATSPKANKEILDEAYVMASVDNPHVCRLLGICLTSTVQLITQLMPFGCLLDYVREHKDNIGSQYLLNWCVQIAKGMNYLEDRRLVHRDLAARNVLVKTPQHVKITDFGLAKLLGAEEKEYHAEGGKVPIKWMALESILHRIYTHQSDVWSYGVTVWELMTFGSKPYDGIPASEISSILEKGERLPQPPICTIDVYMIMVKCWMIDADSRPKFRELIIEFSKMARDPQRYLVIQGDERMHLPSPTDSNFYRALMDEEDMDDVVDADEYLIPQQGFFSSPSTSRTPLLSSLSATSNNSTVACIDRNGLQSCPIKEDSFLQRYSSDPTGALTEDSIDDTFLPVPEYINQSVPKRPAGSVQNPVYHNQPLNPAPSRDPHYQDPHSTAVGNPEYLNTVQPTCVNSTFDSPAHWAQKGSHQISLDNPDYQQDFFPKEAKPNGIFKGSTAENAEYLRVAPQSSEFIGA
# Excerpt: (§7) The western blot technique was applied utilizing the IC50 observed for each respective agent synthesized during MTT assay[85],[86]. Consideration of multi-targeted inhibitory properties investigation is based in the fact that cancer initiation and proliferation sometimes utilizes many receptors or signaling pathways.
# (§8) Western blot technique was considered for EGFR and VEGFR-2 properties determination utilizing the IC50 observed of each respective agent synthesized during MTT assay against MCF7 (breast) cancer cell line. All the studies were conducted according to the manufacturer’s instruction.^10,^11
# VEGFR-2 = molecular target: T2, VEGFR-2 (Homo sapiens, UniProt P35968); format: cell-based; conditions: western blot, MCF7, compound at its MTT IC50; for VEGFR-2 RQ (relative quantification): control RQ 3.2634
# T2 construct: Western blot technique was considered for EGFR and VEGFR-2 properties determination; endogenous in cells; host or cells: MCF7 (breast cancer cell line)
# T2 sequence (P35968 20-1356): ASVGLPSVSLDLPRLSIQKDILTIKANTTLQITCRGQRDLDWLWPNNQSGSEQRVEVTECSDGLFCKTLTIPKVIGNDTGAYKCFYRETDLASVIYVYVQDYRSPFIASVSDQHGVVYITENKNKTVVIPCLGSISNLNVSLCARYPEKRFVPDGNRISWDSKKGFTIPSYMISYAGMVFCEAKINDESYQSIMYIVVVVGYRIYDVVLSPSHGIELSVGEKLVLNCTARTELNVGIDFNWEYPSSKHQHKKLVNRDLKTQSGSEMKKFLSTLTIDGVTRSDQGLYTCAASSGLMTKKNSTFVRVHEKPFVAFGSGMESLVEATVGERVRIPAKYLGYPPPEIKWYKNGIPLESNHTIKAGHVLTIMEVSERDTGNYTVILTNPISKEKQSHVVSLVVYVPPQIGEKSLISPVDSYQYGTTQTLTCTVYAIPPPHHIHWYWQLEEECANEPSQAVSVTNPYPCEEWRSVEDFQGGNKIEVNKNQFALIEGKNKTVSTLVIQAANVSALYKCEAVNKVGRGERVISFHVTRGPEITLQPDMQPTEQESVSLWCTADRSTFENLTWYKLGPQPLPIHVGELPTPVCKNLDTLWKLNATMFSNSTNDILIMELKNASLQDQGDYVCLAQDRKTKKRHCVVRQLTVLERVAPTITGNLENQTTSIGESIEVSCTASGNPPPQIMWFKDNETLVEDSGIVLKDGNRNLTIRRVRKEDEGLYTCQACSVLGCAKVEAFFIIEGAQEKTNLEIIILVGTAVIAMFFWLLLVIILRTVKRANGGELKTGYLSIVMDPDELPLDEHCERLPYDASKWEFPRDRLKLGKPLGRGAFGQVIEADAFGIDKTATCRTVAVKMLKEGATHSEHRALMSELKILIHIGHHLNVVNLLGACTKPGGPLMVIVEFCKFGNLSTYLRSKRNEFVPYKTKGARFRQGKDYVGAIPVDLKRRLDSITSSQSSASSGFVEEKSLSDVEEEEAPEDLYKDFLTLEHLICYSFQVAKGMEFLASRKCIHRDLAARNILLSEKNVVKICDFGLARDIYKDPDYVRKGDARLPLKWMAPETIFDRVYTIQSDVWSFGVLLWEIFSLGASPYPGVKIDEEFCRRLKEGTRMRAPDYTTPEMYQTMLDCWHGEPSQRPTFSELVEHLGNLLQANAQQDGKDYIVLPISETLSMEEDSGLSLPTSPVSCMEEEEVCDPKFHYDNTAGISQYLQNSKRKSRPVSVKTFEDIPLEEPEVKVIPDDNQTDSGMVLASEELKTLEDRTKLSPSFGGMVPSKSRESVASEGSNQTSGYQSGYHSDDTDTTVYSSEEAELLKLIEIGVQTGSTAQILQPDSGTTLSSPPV
# Excerpt: as §7, §8
# [6] = test system: SARS-CoV-2 (hCoV-19/Egypt/NRC-03/2020); assay: Vero-E6 cell viral infection model, anti-SARS-CoV-2 IC50 (CPE, crystal violet); format: cell-based; conditions: for IC50: Severe acute respiratory syndrome coronavirus 2, Vero C1008; for SI = CC50/IC50: Vero-E6, SARS-CoV-2
# [7] = MTT cytotoxicity assay (CC50); format: cell-based; conditions: African green monkey, VERO-E6 cells
# Experimental: The cytotoxic activity of the compounds was tested in VERO-E6 cells by using the 3-(4,5-dimethylthiazol-2-yl)-2,5-diphenyltetrazolium bromide (MTT) method with minor modifications. Briefly, the cells were seeded in 96 well-plates […] at a density of 3 x 10^5 cell/ml and incubated for 24 h at 37 °C in 5% CO2. After 24 h, cells were treated with various concentrated of the tested compounds in triplicates. 24 h later, the supernatant was discarded and cell monolayers were washed with sterile 1x phosphate buffer saline (PBS) 3 times and MTT solution (20 µl of 5 mg/ml) was added to each well and incubated at 37 °C for 4 h followed by medium aspiration. In each well, the formed formazan crystals were dissolved with 200 µl of acidified isopropanol (0.04 M HCl in absolute isopropanol = 0.073 ml HCl in 50 ml isopropanol). Eventually, the absorbance was measured at λmax 570 nm using the Anthos Zenyth 200rt plate reader (Anthos Labtec Instruments, Heerhugowaard, Netherlands). The cytotoxicity of various concentrations compared to the untreated cells was determined using nonlinear regression analysis by plotting log inhibitor versus normalized response.^12^-14
# AChE = AChE (Homo sapiens, UniProt P22303); assay: AChE inhibition (DTNB, acetylthiocholine); format: biochemical; conditions: for IC50: read-out: AChE (IC50, μM) ± SD
# AChE, sequence (P22303 32-614): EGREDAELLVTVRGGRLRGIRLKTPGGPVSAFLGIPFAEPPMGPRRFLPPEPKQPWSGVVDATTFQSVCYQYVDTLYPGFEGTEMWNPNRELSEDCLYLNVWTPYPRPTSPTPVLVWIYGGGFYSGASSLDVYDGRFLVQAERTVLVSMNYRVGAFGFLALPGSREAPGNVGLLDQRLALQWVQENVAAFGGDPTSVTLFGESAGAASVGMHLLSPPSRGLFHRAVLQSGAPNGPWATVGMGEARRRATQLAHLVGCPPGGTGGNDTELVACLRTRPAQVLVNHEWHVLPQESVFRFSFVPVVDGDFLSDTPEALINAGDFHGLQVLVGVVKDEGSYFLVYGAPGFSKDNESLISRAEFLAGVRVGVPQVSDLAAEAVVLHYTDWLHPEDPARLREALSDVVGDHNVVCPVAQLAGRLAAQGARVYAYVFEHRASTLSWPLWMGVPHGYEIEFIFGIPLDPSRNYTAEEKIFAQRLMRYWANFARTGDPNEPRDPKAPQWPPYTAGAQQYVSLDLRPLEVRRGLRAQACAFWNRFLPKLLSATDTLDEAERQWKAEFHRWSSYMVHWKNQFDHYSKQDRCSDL
# Experimental: All compounds were dissolved in MeOH.
# BChE = BChE (Homo sapiens, UniProt P06276); assay: BChE inhibition (DTNB, butyrylthiocholine iodide)
# BChE, sequence (P06276 29-602, species assumed): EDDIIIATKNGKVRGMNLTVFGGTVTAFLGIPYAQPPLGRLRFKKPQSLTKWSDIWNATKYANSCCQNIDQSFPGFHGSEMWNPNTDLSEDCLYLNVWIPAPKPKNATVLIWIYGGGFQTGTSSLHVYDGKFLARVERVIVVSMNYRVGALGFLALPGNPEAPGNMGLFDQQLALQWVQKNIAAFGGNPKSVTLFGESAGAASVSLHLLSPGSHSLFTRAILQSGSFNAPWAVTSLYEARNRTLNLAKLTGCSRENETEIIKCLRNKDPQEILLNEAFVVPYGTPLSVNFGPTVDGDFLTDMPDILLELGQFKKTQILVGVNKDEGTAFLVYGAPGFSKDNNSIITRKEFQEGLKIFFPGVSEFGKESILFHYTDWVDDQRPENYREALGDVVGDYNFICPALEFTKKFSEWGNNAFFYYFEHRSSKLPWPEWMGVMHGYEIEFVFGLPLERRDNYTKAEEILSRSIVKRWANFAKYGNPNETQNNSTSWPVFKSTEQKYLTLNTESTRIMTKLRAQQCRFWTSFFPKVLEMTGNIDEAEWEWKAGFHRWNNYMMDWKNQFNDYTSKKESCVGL
# [8] = A-431, 72 h, read-out: IC50 (µM) ± SEM A431
# [9] = A-431, read-out: Observed log(IC50, μM) (A431) (converted)
# [10] = Vero-E6, 72 h, reduction of virus-induced CPE, read-out: IC50 (µM) SARS-CoV-2
# [11] = log of observed IC50 in μM, read-out: Observed log(IC50, μM) (SARS-CoV-2) (converted)
Structure (SMILES),IC50 [1] [µM],SI (selectivity index) MCF7 [1],IC50 [2] [µM],SI (selectivity index) HCT116 [2],"IC50 [3, 8] [µM]","IC50 [3, 9] [µM]",SI (selectivity index) A431 [3],IC50 [4] [µM],SI (selectivity index) PaCa-2 [4],IC50 [5] [µM],EGFR % Inhibition (EGFR) [%],EGFR RQ (relative quantification) (EGFR),VEGFR-2 % Inhibition (VEGFR-2) [%],VEGFR-2 RQ (relative quantification) (VEGFR-2),"IC50 [6, 10] [µM]","IC50 [6, 11] [µM]",SI = CC50/IC50 [6],CC50 at 24 h [7] [µM],SI = IC50 (AChE)/IC50 (BChE) (AChE),IC50 (AChE) [µM],also measured
"CN1CC(c2ccc(F)cc2)C2(CN(S(C)(=O)=O)C/C(=C\c3ccc(F)cc3)C2=O)C12C(=O)Nc1ccccc12 (centres unmarked) [Compound 6e, (E)-5″-(4-Fluorobenzylidene)-4′-(4-fluorophenyl)-1′-methyl-1″-(methylsulfonyl)dispiro[indoline-3,2′-pyrrolidine-3′,3″-piperidine]-2,4″-dione]",15.5 ± 0.76,3.2,9.89 ± 0.85,5.0,16.1 ± 0.99,16.1,3.1,39.9 ± 1.89,1.2,49 ± 1.11,66.7,1.147,64.5,1.158,27.9,27.9,7.3,203,0.7,15.1 ± 5.76,IC50 (BChE): 22.2 ± 4.54 µM
"CCS(=O)(=O)N1C/C(=C\c2ccccc2)C(=O)C2(C1)C(c1ccccc1)CN(C)C21C(=O)Nc2ccc(Cl)cc21 (centres unmarked) [Compound 6d, (E)-5″-Benzylidene-5-chloro-1″-(ethylsulfonyl)-1′-methyl-4′-phenyldispiro[indoline-3,2′-pyrrolidine-3′,3″-piperidine]-2,4″-dione]",6.92 ± 0.55,> 7.2,5.18 ± 0.61,> 9.7,4.96 ± 0.25,4.96,> 10.1,13.1 ± 1.1,> 3.8,> 50,62.9,1.2774,63.8,1.181,171,171,101.1,17300,1.2,41 ± 7.03,IC50 (BChE): 34.4 ± 2 µM
"CN1CC(c2ccc(Cl)cc2)C2(CN(S(C)(=O)=O)C/C(=C\c3ccc(Cl)cc3)C2=O)C12C(=O)Nc1ccccc12 (centres unmarked) [Compound 6i, (E)-5″-(4-Chlorobenzylidene)-4′-(4-chlorophenyl)-1′-methyl-1″-(methylsulfonyl)dispiro[indoline-3,2′-pyrrolidine-3′,3″-piperidine]-2,4″-dione]",5.01 ± 0.29,2.9,5.47 ± 0.32,2.7,4.4 ± 0.49,4.4,3.4,9.04 ± 0.62,1.6,14.8 ± 1.57,68.7,1.077,64.2,1.1684,113,113,2.1,235,1.3,18.2 ± 1.48,IC50 (BChE): 13.6 ± 2.12 µM
"CN1CC(c2ccc(F)cc2)C2(CN(S(C)(=O)=O)C/C(=C\c3ccc(F)cc3)C2=O)C12C(=O)Nc1ccc(Cl)cc12 (centres unmarked) [Compound 6f, (E)-5-Chloro-5″-(4-fluorobenzylidene)-4′-(4-fluorophenyl)-1′-methyl-1″-(methylsulfonyl)dispiro[indoline-3,2′-pyrrolidine-3′,3″-piperidine]-2,4″-dione]",5 ± 0.39,3.6,5.43 ± 0.46,3.3,4.76 ± 0.37,4.76,3.7,11.7 ± 0.94,1.5,17.8 ± 0.87,69.3,1.058,64.7,1.153,7.67,7.67,8.8,67.8,1.0,3.89 ± 1.66,times the potency of chloroquine against SARS-CoV-2 ([6]; ratio of IC50 values): about 3.3 times; times the potency of hydroxychloroquine against SARS-CoV-2 ([6]; ratio of IC50 values): ~4.8 times; IC50 (BChE): 3.75 ± 0.71 µM
"CCS(=O)(=O)N1C/C(=C\c2ccc(Cl)cc2)C(=O)C2(C1)C(c1ccc(Cl)cc1)CN(C)C21C(=O)Nc2ccccc21 (centres unmarked) [Compound 6k, (E)-5″-(4-Chlorobenzylidene)-4′-(4-chlorophenyl)-1″-(ethylsulfonyl)-1′-methyldispiro[indoline-3,2′-pyrrolidine-3′,3″-piperidine]-2,4″-dione]",4.38 ± 0.26,3.4,4.17 ± 0.38,3.5,2.97 ± 0.29,2.97,5.0,8.83 ± 0.7,1.7,14.8 ± 0.99,66.2,1.163,66.2,1.105,8.43,8.43,6.6,55.5,1.6,32.3 ± 4.78,IC50 (BChE): 19.6 ± 2.1 µM
